# Assay results from the supplement of paper PMC10307832.
# Compound: O=C(/C=C/c1ccccc1)NC(NC(=S)Nc1cccc2cccnc12)C(Cl)(Cl)Cl [Salubrinal] + Cc1nc(Nc2ncc(C(=O)Nc3c(C)cccc3Cl)s2)cc(N2CCN(CCO)CC2)n1 [Dasatinib] (partner 0.075 µM)
# Experiment: relative viability (nuclei count vs DMSO), 5 days (fraction); higher = more cells survive
# Settings: first compound 8 µM
# Procedure, shortened: (§1)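 Lung cancer cell lines were pin-tool dosed in 1536-well plates on the day after seeding, with either a lone drug or a fixed anchor-drug dose plus five library-drug doses (not always all listed) in √10 steps. Nuclei were counted on 4× images after 5 days. Relative viability is the ratio of treated-well to vehicle-well nuclei counts, with each value a median of duplicate plates.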
row,Cell Line,relative viability
1,NCI-H2170,0.534
2,H3255,0.356
3,COR-L23,0.453
4,COR-L 105,0.319
5,LOU-NH91,0.499
6,ChaGo-K-1,0.524
7,NCI-H1793,0.398
8,NCI-H2405,0.204
9,SK-MES-1,0.271
10,SW 900,0.497
11,NCI-H1395,0.392
12,NCI-H1792,0.702
13,NCI-H1623,0.572
14,NCI-H1563,0.502
15,ABC-1,0.554
16,NCI-H1944,0.246

# Compound: Cc1ccc2nc(NCCN)c3ncc(C)n3c2c1 + Nc1nc2[nH]cc(CCc3ccc(C(=O)N[C@@H](CCC(=O)O)C(=O)O)cc3)c2c(=O)[nH]1 [Pemetrexed] (partner 0.2 µM)
# Experiment: as above
# Settings: first compound 0.04 µM
# Procedure, shortened: as §1
row,Cell Line,relative viability
1,NCI-H522,1.02
2,NCI-H2342,0.871
3,NCI-H1650,0.352
4,NCI-H1993,0.595
5,SW 1573,1.01
6,NCI-H838,0.277
7,LCLC-103H,0.503
8,NCI-H520,0.655
9,NCI-H2126,0.851
10,EMC-BAC-2,0.463
11,NCI-H2085,0.87
12,HCC-366,0.157
13,NCI-H1666,0.965
14,NCI-H596,0.484
15,LK-2,0.252
16,NCI-H2087,0.725

row,Cell Line,relative viability
1,NCI-H358,0.185
2,NCI-H2170,0.258
3,H3255,0.573
4,COR-L23,0.191
5,COR-L 105,1.19
6,LOU-NH91,0.411
7,ChaGo-K-1,0.248
8,NCI-H1793,0.951
9,NCI-H2405,1.17
10,HCC-44,0.679
11,SK-MES-1,1.04
12,NCI-H1395,0.881
13,NCI-H1792,1.33
14,NCI-H1563,0.861
15,NCI-H1648,0.696
16,NCI-H1944,0.687

# Same assay, conditions: first compound 0.1265 µM
row,Cell Line,relative viability
1,NCI-H522,1.24
2,NCI-H2342,0.817
3,NCI-H1650,0.386
4,NCI-H1993,0.623
5,SW 1573,0.828
6,NCI-H838,0.247
7,LCLC-103H,0.51
8,NCI-H520,0.62
9,NCI-H2126,0.699
10,EMC-BAC-2,0.43
11,NCI-H2085,0.934
12,HCC-366,0.202
13,NCI-H1666,0.817
14,NCI-H596,0.447
15,LK-2,0.297
16,NCI-H2087,0.637
17,NCI-H358,0.165

row,Cell Line,relative viability
1,NCI-H2170,0.305
2,H3255,0.568
3,COR-L23,0.191
4,COR-L 105,1.21
5,LOU-NH91,0.344
6,ChaGo-K-1,0.267
7,NCI-H1793,0.85
8,NCI-H2405,1.01
9,HCC-44,0.704
10,SK-MES-1,0.903
11,SW 900,0.49
12,NCI-H1395,0.995
13,NCI-H1792,0.774
14,NCI-H1563,0.78
15,NCI-H1648,0.85
16,NCI-H1944,0.586

# Same assay, conditions: first compound 0.4 µM
row,Cell Line,relative viability
1,NCI-H522,0.766
2,NCI-H2342,0.751
3,NCI-H1650,0.349
4,NCI-H1993,0.528
5,SW 1573,0.912
6,NCI-H838,0.252
7,LCLC-103H,0.5
8,NCI-H520,0.651
9,NCI-H2126,0.659
10,EMC-BAC-2,0.4
11,NCI-H2085,0.855
12,HCC-366,0.146
13,NCI-H1666,0.84
14,NCI-H596,0.506
15,NCI-H2087,0.599
16,NCI-H358,0.166

row,Cell Line,relative viability
1,NCI-H2170,0.26
2,H3255,0.536
3,COR-L23,0.204
4,COR-L 105,0.996
5,LOU-NH91,0.361
6,ChaGo-K-1,0.256
7,NCI-H1793,0.846
8,NCI-H2405,1
9,HCC-44,0.643
10,SK-MES-1,0.9
11,SW 900,0.444
12,NCI-H1395,0.855
13,NCI-H1563,0.877
14,NCI-H1648,0.723
15,NCI-H1944,0.582

# Same assay, conditions: first compound 1.265 µM
row,Cell Line,relative viability
1,NCI-H522,1.28
2,NCI-H2342,0.827
3,NCI-H1650,0.376
4,NCI-H1993,0.57
5,SW 1573,0.992
6,NCI-H838,0.302
7,LCLC-103H,0.467
8,NCI-H520,0.687
9,NCI-H2126,0.708
10,EMC-BAC-2,0.448
11,NCI-H2085,0.892
12,HCC-366,0.126
13,NCI-H1666,0.736
14,NCI-H596,0.515
15,NCI-H2087,0.711
16,NCI-H358,0.178

row,Cell Line,relative viability
1,NCI-H2170,0.257
2,H3255,0.557
3,COR-L23,0.218
4,COR-L 105,1.23
5,LOU-NH91,0.465
6,ChaGo-K-1,0.252
7,NCI-H1793,0.714
8,NCI-H2405,0.905
9,HCC-44,0.594
10,SK-MES-1,1.05
11,SW 900,0.464
12,NCI-H1395,0.697
13,NCI-H1792,0.801
14,NCI-H1563,0.718
15,NCI-H1648,0.627
16,NCI-H1944,0.555

# Same assay, conditions: first compound 4 µM
row,Cell Line,relative viability
1,NCI-H522,0.95
2,NCI-H2342,0.713
3,NCI-H1650,0.332
4,NCI-H1993,0.613
5,SW 1573,0.611
6,NCI-H838,0.419
7,LCLC-103H,0.494
8,NCI-H520,0.574
9,NCI-H2126,0.59
10,EMC-BAC-2,0.496
11,NCI-H2085,1
12,HCC-366,0.165
13,NCI-H1666,0.795
14,NCI-H596,0.49
15,LK-2,0.191
16,NCI-H2087,0.575
